melting point | Compound
190 °C | CCOc1ccc2[nH]cc(C(=O)NCc3ccc4c(c3)OCO4)c(=O)c2n1 [Compound 9, N-Piperonyl 6-ethoxy-4-oxo-1,4-tetrahydro-1,5-naphthyridine-3-carboxamide]
257 to 259 °C (dec.) | CCSCCNC(=O)c1c[nH]c2ccc(OC)nc2c1=O [Compound 5, N-[2-(ethylthio)ethyl] 6-methoxy-4-oxo-1,4-dihydro-1,5-napththyridine-3-carboxamide]
137 to 139 °C | O=C(NCc1ccccc1F)c1c[nH]c2ccc(N3CCOCC3)nc2c1=O [Compound 7, N-(2-Fluorobenzyl) 6-morpholino-4-oxo-1,4-tetrahydro-1,5-naphthyridine-3-carboxamide]
235 to 237 °C | CCOc1ccc2[nH]cc(C(=O)NCC3CCCO3)c(=O)c2n1 (stereo not shown) [Compound 4, N-(2-Tetrahydrofuranyl)methyl 6-ethoxy-4-oxo-1,4-tetrahydro-1,5-naphthyridine-3-carboxamide]
